These results are taken from US9409866B2, “Pyridine-2-amides useful as CB2 agonists” (Hoffmann-La Roche Inc., priority 2012, dated 2016).

The target of one assay is human CB2 receptors (Homo sapiens (Human), UniProt P34972). Briefly: functional cAMP assay, CHO cells expressing human CB2. It counts as cell-based. A digest of the protocol:
(§1)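 Agonist EC50 values came from cAMP levels in CHO cells carrying human CB1 or CB2, after 30 min of compound treatment at 30 °C in the presence of 1 mM IBMX. Detection used a time-resolved FRET cAMP kit read against a cAMP standard curve.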
On the technique in general: cAMP levels reflect the balance of adenylyl cyclase and phosphodiesterase activity.

Another assay concerns the target human CB1 receptors (Homo sapiens (Human), UniProt P21554). Briefly: functional cAMP assay, CHO cells expressing human CB1. It counts as cell-based. In outline:
as §1

The mark [1] stands for this setting: functional cAMP assay, CHO cells expressing human CB1; read-out: Human CB1 EC50.
[2] abbreviates: read-out: Human CB1 EC50; functional cAMP assay, CHO cells expressing human CB1.
The mark [3] stands for this setting: Human CB1 EC50 (uM), functional cAMP assay, CHO cells expressing human CB1.

Like-named read-outs stand apart in the source and are kept apart here.

Chain of human CB1 receptors (P21554 whole entry): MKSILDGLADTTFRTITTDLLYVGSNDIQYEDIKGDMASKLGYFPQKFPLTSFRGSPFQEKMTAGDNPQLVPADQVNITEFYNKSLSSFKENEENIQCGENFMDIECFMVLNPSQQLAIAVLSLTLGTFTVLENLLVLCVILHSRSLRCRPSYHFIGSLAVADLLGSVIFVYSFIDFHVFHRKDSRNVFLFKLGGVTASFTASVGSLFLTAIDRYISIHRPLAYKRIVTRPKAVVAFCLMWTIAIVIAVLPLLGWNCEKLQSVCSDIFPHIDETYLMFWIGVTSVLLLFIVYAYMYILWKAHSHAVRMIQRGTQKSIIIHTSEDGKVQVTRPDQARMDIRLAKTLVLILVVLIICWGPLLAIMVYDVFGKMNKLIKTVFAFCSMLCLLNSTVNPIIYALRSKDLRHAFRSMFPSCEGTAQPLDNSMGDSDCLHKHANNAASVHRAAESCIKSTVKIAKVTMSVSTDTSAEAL
Chain of human CB2 receptors (P34972 whole entry): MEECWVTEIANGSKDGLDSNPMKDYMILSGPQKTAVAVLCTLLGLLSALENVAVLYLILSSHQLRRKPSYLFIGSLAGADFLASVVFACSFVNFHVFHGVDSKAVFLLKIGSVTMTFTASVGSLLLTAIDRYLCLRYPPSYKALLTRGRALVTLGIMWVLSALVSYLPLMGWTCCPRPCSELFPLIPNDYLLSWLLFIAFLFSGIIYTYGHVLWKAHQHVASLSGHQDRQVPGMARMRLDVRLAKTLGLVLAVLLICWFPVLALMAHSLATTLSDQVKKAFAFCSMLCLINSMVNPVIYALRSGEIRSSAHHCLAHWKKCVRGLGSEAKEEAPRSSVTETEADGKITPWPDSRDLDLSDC

The EC50 is the concentration at which the effect is half-maximal. In the case of `Cc1csc(C(C)(CC2CC2)NC(=O)c2cc(OCC(F)(F)F)c(C3CC3)cn2)n1` (stereo not shown) [Example 158, 5-cyclopropyl-N-[1-cyclopropyl-2-(4-methyl-1,3-thiazol-2-yl)propan-2-yl]-4-(2,2,2-trifluoroethoxy)pyridine-2-carboxamide], the EC50 was 0.0958 µM on human CB2 receptors (read-out: Human CB2 EC50) and above 10 µM on human CB1 receptors (setting [1]).

`CC(C)(C)C(NC(=O)c1cc(OCC2CC2)c(N2CC(F)(F)C2)cn1)C(N)=O` (single isomer, unassigned) [Example 261, N-[1-amino-3,3-dimethyl-1-oxobutan-2-yl]-4-(cyclopropylmethoxy)-5-(3,3-difluoroazetidin-1-yl)pyridine-2-carboxamide]: the EC50 at human CB2 receptors (Human CB2 EC50 (uM)) was 0.0211 µM; at human CB1 receptors (setting [2]), above 10 µM.

Consider `CC(C)(C)C(NC(=O)c1cc(OCC(F)(F)F)c(C2CC2)cn1)c1noc(N)n1` (stereo not shown) [Example 192, N-[1-(5-amino-1,2,4-oxadiazol-3-yl)-2,2-dimethylpropyl]-5-cyclopropyl-4-(2,2,2-trifluoroethoxy)pyridine-2-carboxamide], for which the EC50 on human CB2 receptors (read-out: Human CB2 EC50) is 0.0044 µM; at human CB1 receptors (setting [1]), above 10 µM.

Regarding `Cn1nnnc1C(C)(CC1CC1)NC(=O)c1cc(OCC(F)(F)F)c(C2CC2)cn1` (stereo not shown) [Example 151, 5-cyclopropyl-N-[1-cyclopropyl-2-(1-methyltetrazol-5-yl)propan-2-yl]-4-(2,2,2-trifluoroethoxy)pyridine-2-carboxamide], the concentration giving a half-maximal response (EC50) was 0.0198 µM on human CB2 receptors (read-out: Human CB2 EC50) and above 10 µM on human CB1 receptors (setting [1]).

As to `Cc1nc(C(C)(NC(=O)c2cc(OCC(F)(F)F)c(C3CC3)cn2)C(=O)N(C)C)no1` (stereo not shown) [Example 181, 5-cyclopropyl-N-[1-(dimethylamino)-2-(5-methyl-1,2,4-oxadiazol-3-yl)-1-oxopropan-2-yl]-4-(2,2,2-trifluoroethoxy)pyridine-2-carboxamide], the EC50 on human CB2 receptors (read-out: Human CB2 EC50) was 0.002 µM; at human CB1 receptors (setting [1]), above 10 µM.

As to `Cc1nc(C(C)(CO)NC(=O)c2cc(OCC(F)(F)F)c(C3CC3)cn2)no1` (single isomer, unassigned) [Example 140, 5-cyclopropyl-N-[1-hydroxy-2-(5-methyl-1,2,4-oxadiazol-3-yl)propan-2-yl]-4-(2,2,2-trifluoroethoxy)pyridine-2-carboxamide], the results for the EC50 on human CB2 receptors (Human CB2 EC50 (uM)) and on human CB1 receptors (setting [3]) were 0.511 µM and above 10 µM, respectively.

Regarding `CN(C)C(=O)C(NC(=O)c1cc(OCC(F)(F)F)c(C2CC2)cn1)C(C)(C)C` (stereo not shown) [Example 195, 5-cyclopropyl-N-[1-(dimethylamino)-3,3-dimethyl-1-oxobutan-2-yl]-4-(2,2,2-trifluoroethoxy)pyridine-2-carboxamide], the EC50 at human CB2 receptors (read-out: Human CB2 EC50) is 0.0034 µM; at human CB1 receptors (setting [1]) it was above 10 µM.

Consider `O=C(NC1(CO)CCCCC1)c1cc(OCC(F)(F)F)c(C2CC2)cn1` [Example 55, 5-Cyclopropyl-4-(2,2,2-trifluoro-ethoxy)-pyridine-2-carboxylic acid (1-hydroxymethyl-cyclohexyl)-amide], for which the EC50 on human CB2 receptors (read-out: Human CB2 EC50) is 0.0157 µM; on human CB1 receptors (setting [1]) it was above 10 µM.

`Cc1nc(C(C)(CS(C)(=O)=O)NC(=O)c2cc(OCC(F)F)c(C3CC3)cn2)no1` (single isomer, unassigned) [Example 283, 5-cyclopropyl-4-(2,2-difluoroethoxy)-N-(2-(5-methyl-1,2,4-oxadiazol-3-yl)-1-(methylsulfonyl)propan-2-yl)picolinamide]: the EC50 on human CB2 receptors (Human CB2 EC50 (uM)) is 0.0533 µM; on human CB1 receptors (setting [3]), above 10 µM.

Take `Cc1nc(C(C)(CC2CC2)NC(=O)c2cc(OCC(F)(F)F)c(C3(F)COC3)cn2)no1` (single isomer, unassigned) [Example 135, N-[1-cyclopropyl-2-(5-methyl-1,2,4-oxadiazol-3-yl)propan-2-yl]-5-(3-fluorooxetan-3-yl)-4-(2,2,2-trifluoroethoxy)pyridine-2-carboxamide]: the concentration for a half-maximal effect (EC50) at human CB2 receptors (Human CB2 EC50 (uM)) is 0.144 µM; on human CB1 receptors (setting [3]), above 10 µM.

Turning to `CNC(=O)CC(C)(NC(=O)c1cc(OCC(F)(F)F)c(C2CC2)cn1)C1CC1` (single isomer, unassigned) [Example 242, 5-cyclopropyl-N-[2-cyclopropyl-4-(methylamino)-4-oxobutan-2-yl]-4-(2,2,2-trifluoroethoxy)pyridine-2-carboxamide], the EC50 on human CB2 receptors (Human CB2 EC50 (uM)) is 0.237 µM; on human CB1 receptors (setting [2]) it was above 10 µM.

`O=C(NCC1(O)CCCCC1)c1cc(OCC2CC2)c(C2CC2)cn1` [Example 57, 5-Cyclopropyl-4-cyclopropylmethoxy-pyridine-2-carboxylic acid (1-hydroxy-cyclohexylmethyl)-amide]: the EC50 is 0.013 µM at human CB2 receptors (read-out: Human CB2 EC50) and above 10 µM on human CB1 receptors (setting [1]).

Regarding `C[C@H](Oc1cc(C(=O)NC(C(N)=O)C(C)(C)C)ncc1C1CC1)C(F)(F)F` (stereo partly drawn) [Example 239, N-(1-amino-3,3-dimethyl-1-oxobutan-2-yl)-5-cyclopropyl-4-[(2S)-1,1,1-trifluoropropan-2-yl]oxypyridine-2-carboxamide], the results for the EC50 at human CB2 receptors (read-out: Human CB2 EC50) and at human CB1 receptors (setting [1]) were 0.0015 µM and above 10 µM, respectively.

With `NC(=O)CC1(NC(=O)c2cc(OCC(F)(F)F)c(C3CCC3)cn2)CS(=O)(=O)C1` [Example 299, N-[3-(2-amino-2-oxoethyl)-1,1-dioxothietan-3-yl]-5-cyclobutyl-4-(2,2,2-trifluoroethoxy)pyridine-2-carboxamide], the EC50 at human CB2 receptors (read-out: Human CB2 EC50) was 0.002 µM; at human CB1 receptors (setting [1]), above 10 µM.

As to `Cc1nc(C(C)(CS(C)(=O)=O)NC(=O)c2cc(O[C@@H](C)C(F)(F)F)c(C3(F)CCC3)cn2)no1` (stereo partly drawn) [Example 138, 5-(1-fluorocyclobutyl)-N-[2-(5-methyl-1,2,4-oxadiazol-3-yl)-1-methylsulfonylpropan-2-yl]-4-[(2S)-1,1,1-trifluoropropan-2-yl]oxypyridine-2-carboxamide], the figures for the EC50 on human CB2 receptors (read-out: Human CB2 EC50) and on human CB1 receptors (setting [1]) were 0.0217 µM and above 10 µM, respectively.

As to `CC1(COc2cc(C(=O)NC(C)(C)c3nnc(-c4ccccc4)o3)ncc2C2CC2)COC1` [Example 215, 5-cyclopropyl-4-[(3-methyloxetan-3-yl)methoxy]-N-[2-(5-phenyl-1,3,4-oxadiazol-2-yl)propan-2-yl]pyridine-2-carboxamide], the EC50 at human CB2 receptors (Human CB2 EC50 (uM)) is 0.0309 µM; at human CB1 receptors (setting [3]), above 10 µM.

`O=C(NCC1(O)CCCCC1)c1cc(OCC2CC2)c(Cl)cn1` [Example 5, 5-Chloro-4-cyclopropylmethoxy-pyridine-2-carboxylic acid (1-hydroxy-cyclohexylmethyl)-amide]: the EC50 at human CB2 receptors (read-out: Human CB2 EC50) is 0.107 µM; on human CB1 receptors (setting [1]) it was above 10 µM.

For the compound `Cc1nc(C(C)(CC2CC2)NC(=O)c2cc(OCC(F)(F)F)c(C3CCC3)cn2)no1` (stereo not shown) [Example 108, 5-Cyclobutyl-4-(2,2,2-trifluoro-ethoxy)-pyridine-2-carboxylic acid [2-cyclopropyl-1-methyl-1-(5-methyl-[1,2,4]oxadiazol-3-yl)-ethyl]-amide], the EC50 amounted to 0.0027 µM on human CB2 receptors (read-out: Human CB2 EC50) and 0.79 µM at human CB1 receptors (setting [1]).

Turning to `CC(CC(N)=O)(NC(=O)c1cc(OCC(F)F)c(C2CC2)cn1)C1CC1` (single isomer, unassigned) [Example 272, N-[4-amino-2-cyclopropyl-4-oxobutan-2-yl]-5-cyclopropyl-4-(2,2-difluoroethoxy)pyridine-2-carboxamide], the half-maximal effective concentration (EC50) at human CB2 receptors (Human CB2 EC50 (uM)) is 0.0495 µM; on human CB1 receptors (setting [3]), above 10 µM.

Regarding `CC(C)C[C@](C)(CO)NC(=O)c1cc(OCC2CC2)c(Cl)cn1` [Example 28, (+)-5-Chloro-4-cyclopropylmethoxy-pyridine-2-carboxylic acid (1-hydroxymethyl-1,3-dimethyl-butyl)-amide], the EC50 was 0.0263 µM at human CB2 receptors (read-out: Human CB2 EC50) and above 10 µM on human CB1 receptors (setting [1]).
